Assay results published in ChEMBL document CHEMBL5053549, “Discovery of Potent and Novel Dual PARP/BRD4 Inhibitors for Efficient Treatment of Pancreatic Cancer” (J Med Chem, 2021).
Activity calls are given as the source filed them. The calls are words filed in the database; no cut-off is given here.

Experiments:
SW1990 [1] = test: Inhibition of homologous recombinant repair in human SW1990 cells assessed as reduction in c-Myc expression at 4 uM after 4 days by Q-PCR analysis; assay type: functional, cell-based; settings: time 4.0 day
SW1990 [2] = test: Induction of autophagy in human SW1990 cells assessed as reduction in p62 expression at 4 uM incubated for 4 days by immunofluorescence assay; assay type: functional, cell-based; settings: time 4.0 day
SW1990 [3] = test: Inhibition of homologous recombinant repair in human SW1990 cells assessed as reduction in FOXM1 expression at 4 uM after 4 days by Q-PCR analysis; assay type: functional, cell-based; settings: time 4.0 day
SW1990 [4] = test: Effect on cell cycle progression in human SW1990 cells assessed as reduction in Olaparib-induced CDK6 expression at 1 uM after 4 days in presence of Olaparib by Western blot analysis; assay type: functional, cell-based; settings: time 4.0 day
Mus musculus [5] = test: In vivo inhibition of PARP1 expression in human […] cells xenografted in BALB/c mouse assessed as reversal of Olaparib-induced PARP1 accumulation at 15 mg/kg, ip administered for 28 consecutive days in presence of 45 mg/kg Olaparib by immunohistochemical analysis; assay type: functional, organism-based; settings: time 28.0 day
SW1990 [6] = test: Induction of apoptosis in human SW1990 cells assessed as necrotic cells at 4 uM after 4 days by Annexin V-FITC and propidium iodide staining based flow cytometry (reference value: 1.89%); assay type: functional; settings: time 4 day
SW1990 [7] = test: Inhibition of homologous recombinant repair in human SW1990 cells assessed as increase in […] expression at 4 uM after 4 days by Q-PCR analysis; assay type: functional, cell-based; settings: time 4.0 day
Mus musculus [8] = test: Toxicity in BALB/c mouse xenografted with human SW1990 cells assessed as lung damage at 15 mg/kg, ip administered for 28 consecutive days by H and E staining based […] microscopic analysis; assay type: organism-based; settings: in vivo, 672 h, time 28 day
SW1990 [9] = test: Inhibition of homologous recombinant repair in human SW1990 cells assessed as reduction in Olaparib-induced BRCA1 expression at 1 uM after 4 days in presence of Olaparib by Western blot analysis; assay type: functional, cell-based; settings: time 4.0 day
SW1990 [10] = test: Induction of cell cycle arrest in human SW1990 cells assessed as accumulation of cells at G0/G1 phase at 4 uM incubated for 4 days by propidium iodide staining based flow cytometry (reference value: 64.79%); assay type: functional; settings: time 4 day
Mus musculus [11] = test: Toxicity in BALB/c mouse xenografted with human SW1990 cells assessed as liver damage at 15 mg/kg, ip administered for 28 consecutive days by H and E staining based […] microscopic analysis; assay type: organism-based; settings: in vivo, 672 h, time 28 day
Mus musculus [12] = test: In vivo inhibition of PARP1 expression in human […] cells xenografted in BALB/c mouse assessed as reversal of Olaparib-induced PARP1 accumulation at 15 mg/kg, ip administered for 28 consecutive days in presence of 45 mg/kg Olaparib by Western blot analysis; assay type: functional, organism-based; settings: time 28.0 day
SW1990 [13] = test: Inhibition of homologous recombinant repair in human SW1990 cells assessed as reduction in c-Myc expression at 4 uM after 4 days by Western blot analysis; assay type: functional, cell-based; settings: time 4.0 day
SW1990 [14] = test: Induction of DNA damage in human SW1990 cells assessed as tail DNA at 4 uM incubated for 4 days by comet assay; assay type: functional, cell-based; settings: time 4.0 day
Mus musculus [15] = test: Inhibition of homologous recombinant repair in human SW1990 cells xenografted in BALB/c mouse assessed as reduction in olaparib-induced BRCA1 expression at 15 mg/kg, ip after 4 days by immunohistochemical analysis; assay type: functional, organism-based; settings: time 4.0 day
SW1990 [16] = test: Induction of cell cycle arrest in human SW1990 cells assessed as accumulation of cells at G0/G1 phase at 1 uM incubated for 4 days by propidium iodide staining based flow cytometry (reference value: 64.79%); assay type: functional; settings: time 4 day
SW1990 [17] = test: Induction of autophagy in human SW1990 cells xenografted in BALB/c mouse assessed as increase in LC3B expression at 45 mg/kg, ip after 4 days by Q-PCR analysis; assay type: functional, organism-based; settings: time 4.0 day
Mus musculus [18] = test: Effect on cell cycle progression in human SW1990 cells xenografted in BALB/c mouse assessed as reduction in PLK1 expression at 45 mg/kg, ip after 4 days by Q-PCR analysis; assay type: functional, organism-based; settings: time 4.0 day
Mus musculus [19] = test: Inhibition of homologous recombinant repair in human SW1990 cells xenografted in BALB/c mouse assessed as reduction in BRCA1 expression at 45 mg/kg, ip after 4 days by immunohistochemical analysis; assay type: functional, organism-based; settings: time 4.0 day
[20] = target: Bromodomain-containing protein 3 (Homo sapiens, UniProt Q15059); test: Inhibition of recombinant BRD3 BD2 (unknown origin) incubated for 120 mins by TR-FRET assay
SW1990 [21] = test: Induction of cell cycle arrest in human SW1990 cells assessed as accumulation of cells at S phase at 1 uM incubated for 4 days by propidium iodide staining based flow cytometry (reference value: 29.32%); assay type: functional; settings: time 4 day
Mus musculus [22] = test: Inhibition of homologous recombinant repair in human SW1990 cells xenografted in BALB/c mouse assessed as reduction in Rad51 expression at 45 mg/kg, ip after 4 days by immunohistochemical analysis; assay type: functional, organism-based; settings: time 4.0 day
[23] = target: Bromodomain-containing protein 2 (Homo sapiens, UniProt P25440); test: Inhibition of recombinant BRD2 BD2 (unknown origin) incubated for 120 mins by TR-FRET assay
Mus musculus [24] = test: Effect on cell cycle progression in human SW1990 cells xenografted in BALB/c mouse assessed as reduction in CCND1 expression at 45 mg/kg, ip after 4 days by Western blot analysis; assay type: functional, organism-based; settings: time 4.0 day
Mus musculus [25] = test: Inhibition of homologous recombinant repair in human SW1990 cells xenografted in BALB/c mouse assessed as reduction in c-Myc expression at 45 mg/kg, ip after 4 days by immunohistochemical analysis; assay type: functional, organism-based; settings: time 4.0 day
[26] = target: T1, Bromodomain-containing protein 4 (Homo sapiens, UniProt O60885); test: Inhibition of recombinant BRD4 (unknown origin) incubated for 120 mins by TR-FRET assay
SW1990 [27] = test: Induction of apoptosis in human SW1990 cells assessed as necrotic cells at 1 uM after 4 days by Annexin V-FITC and propidium iodide staining based flow cytometry (reference value: 1.89%); assay type: functional; settings: time 4 day
Mus musculus [28] = test: Inhibition of homologous recombinant repair in human SW1990 cells xenografted in BALB/c mouse assessed as reduction in olaparib-induced Rad51 expression at 15 mg/kg, ip after 4 days by immunohistochemical analysis; assay type: functional, organism-based; settings: time 4.0 day
Mus musculus [29] = test: Effect on cell cycle progression in human SW1990 cells xenografted in BALB/c mouse assessed as reduction in CCND1 expression at 45 mg/kg, ip after 4 days by Q-PCR analysis; assay type: functional, organism-based; settings: time 4.0 day
[30] = target: T1, Bromodomain-containing protein 4; test: Inhibition of recombinant BRD4 BD1 (unknown origin) incubated for 120 mins by TR-FRET assay
[31] = target: T1, Bromodomain-containing protein 4; test: Inhibition of recombinant BRD4 BD2 (unknown origin) incubated for 120 mins by TR-FRET assay
SW1990 [32] = test: Inhibition of homologous recombinant repair in human SW1990 cells assessed as increase in […] expression at 1 to 2 uM after 4 days by Q-PCR analysis; assay type: functional, cell-based; settings: dose 1-2 µM, time 4.0 day
SW1990 [33] = test: Inhibition of colony formation in human SW1990 cells at 1 uM after 14 days by crystal violet staining based microscopic analysis; assay type: functional, cell-based; settings: time 14.0 day

Chain of Bromodomain-containing protein 3 (Q15059 whole entry): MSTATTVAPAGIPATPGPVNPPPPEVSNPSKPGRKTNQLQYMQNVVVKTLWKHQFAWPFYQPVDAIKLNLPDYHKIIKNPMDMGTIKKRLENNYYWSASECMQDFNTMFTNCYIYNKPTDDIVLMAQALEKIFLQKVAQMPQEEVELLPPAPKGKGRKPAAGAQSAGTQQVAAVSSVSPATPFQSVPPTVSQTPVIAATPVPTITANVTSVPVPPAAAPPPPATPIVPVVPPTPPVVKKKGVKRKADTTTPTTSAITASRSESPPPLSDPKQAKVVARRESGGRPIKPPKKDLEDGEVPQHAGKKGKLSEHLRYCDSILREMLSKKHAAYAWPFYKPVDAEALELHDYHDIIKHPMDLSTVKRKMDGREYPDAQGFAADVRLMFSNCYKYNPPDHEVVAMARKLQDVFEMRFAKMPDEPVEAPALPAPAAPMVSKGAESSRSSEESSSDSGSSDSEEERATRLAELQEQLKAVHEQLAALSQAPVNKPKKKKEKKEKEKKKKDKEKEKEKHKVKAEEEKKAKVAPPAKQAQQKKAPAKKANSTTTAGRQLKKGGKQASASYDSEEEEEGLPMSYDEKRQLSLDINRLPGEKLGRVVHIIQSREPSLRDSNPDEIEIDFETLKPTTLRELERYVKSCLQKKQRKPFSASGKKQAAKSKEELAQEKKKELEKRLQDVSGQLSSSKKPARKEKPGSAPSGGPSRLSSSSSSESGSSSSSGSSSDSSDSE
Chain of Bromodomain-containing protein 2 (P25440 whole entry): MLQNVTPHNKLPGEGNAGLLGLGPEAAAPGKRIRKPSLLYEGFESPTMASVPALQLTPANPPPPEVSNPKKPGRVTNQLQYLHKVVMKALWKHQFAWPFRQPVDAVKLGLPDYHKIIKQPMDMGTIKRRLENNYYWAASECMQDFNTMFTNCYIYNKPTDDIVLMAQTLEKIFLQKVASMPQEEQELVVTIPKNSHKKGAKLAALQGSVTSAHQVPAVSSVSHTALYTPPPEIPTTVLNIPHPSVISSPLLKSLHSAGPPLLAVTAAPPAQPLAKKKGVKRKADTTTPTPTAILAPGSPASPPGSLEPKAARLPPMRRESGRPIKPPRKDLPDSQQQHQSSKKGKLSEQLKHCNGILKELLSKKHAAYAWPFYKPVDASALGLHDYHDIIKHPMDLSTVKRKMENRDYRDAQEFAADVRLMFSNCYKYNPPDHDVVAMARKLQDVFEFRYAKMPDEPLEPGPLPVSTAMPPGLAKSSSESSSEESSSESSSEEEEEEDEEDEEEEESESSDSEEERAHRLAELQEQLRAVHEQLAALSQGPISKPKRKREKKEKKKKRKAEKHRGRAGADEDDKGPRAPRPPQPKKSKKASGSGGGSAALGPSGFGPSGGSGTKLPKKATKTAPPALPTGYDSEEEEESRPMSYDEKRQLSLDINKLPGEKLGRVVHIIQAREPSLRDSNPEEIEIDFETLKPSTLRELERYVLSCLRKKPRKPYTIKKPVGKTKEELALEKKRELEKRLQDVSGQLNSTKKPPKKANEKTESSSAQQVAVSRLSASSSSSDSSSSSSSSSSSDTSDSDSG

For Cc1sc2c(c1C)C(c1ccc(Cl)cc1)=N[C@@H](CC(=O)OC(C)(C)C)c1nnc(C)n1-2, the inhibition (SW1990 [1]) was “Active”, the Activity (SW1990 [2]) was “Active” and the inhibition (SW1990 [3]) was “Active”. For the same molecule, the Activity (SW1990 [4]) was “Active”, the Activity (Mus musculus [5]) was “Active” and the Activity (SW1990 [6]) was 1.23%. For the same molecule, the inhibition (SW1990 [7]) was “Active”, the Activity (Mus musculus [8]) was “Non-Toxic” and the inhibition (SW1990 [9]) was “Active”. For the same molecule, the Activity (SW1990 [10]) was 75.06%, the Activity (Mus musculus [11]) was “Non-Toxic” and the Activity (Mus musculus [12]) was “Active”. For the same molecule, the inhibition (SW1990 [13]) was “Active” and the Activity (SW1990 [14]) was “Active”.

For CC[C@@H]1C(=O)N(C)c2cnc(N(C)c3ccc(-c4nc5c(C(N)=O)cccc5[nH]4)cc3OC)nc2N1C1CCCC1, the inhibition (Mus musculus [15]) was “Active”, the Activity (SW1990 [16]) was 74.76% and the Activity (SW1990 [17]) was “Active”. For the same molecule, the Activity (Mus musculus [18]) was “Active”, the inhibition (Mus musculus [19]) was “Active” and the IC50 [20] was 123 nM. The Activity (SW1990 [21]) was 14.74%, the inhibition (Mus musculus [22]) was “Active” and the IC50 [23] was 168 nM. For the same molecule, the Activity (Mus musculus [24]) was “Active”, the inhibition (Mus musculus [25]) was “Active” and the IC50 [26] was 101 nM. For the same molecule, the Activity (SW1990 [27]) was 3.41%, the inhibition (Mus musculus [28]) was “Active” and the Activity (Mus musculus [29]) was “Active”. The IC50 [30] was 75 nM, the IC50 [31] was 157 nM and the inhibition (SW1990 [32]) was “Active”. For the same molecule, the inhibition (SW1990 [33]) was “Active”.
